Data as given in patent US20200060276A1, “THIAZOLE COMPOUND AND HERBICIDE” (OAT Agrio Co., Ltd., priority 2017, published 2020).

Columns and labels:
Assay type in all cases: in vivo
[1] = system: Echinochloa crus-galli (L.) P. Beauv. var. formosensis Ohwi; assay: Test for Herbicidal Effect in Flooding Treatment (#2), ECHDG at 2-2.5 leaf stage; details: flooding treatment at 2-2.5 leaf stage, dose 0.2 kg/ha, visual observation on day 21
Summary of the method: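 Flooded muddy soil was seeded with the weed, and at 2–2.5 leaf stage compound in acetone/Tween 80 water was dropped on the water surface at 0.2 kg/ha. Plants were kept in a glasshouse and scored visually on day 21 from 0 (<10% growth inhibition) to 5 (≥90% or complete withering).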

[2] = system: Echinochloa crus-galli (L.) P. Beauv. var. formosensis Ohwi; assay: Test for Herbicidal Effect in Flooding Treatment (#1), ECHDG; details: flooding treatment at seeding, dose 2 kg/ha, visual observation on day 21
Summary of the method: (§1)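 Visual scores from 0 (<10% inhibition) to 5 (≥90% or complete withering) were taken 21 days after treatment of glasshouse-grown plants. Seeds were sown in soil flooded for 24 h beforehand, and compound was applied dropwise onto the surface at 2 kg/ha as an acetone solution diluted in water with Tween 80.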

Monochoria vaginalis = assay: Test for Herbicidal Effect in Flooding Treatment (#1), MONVA; details: flooding treatment at seeding, dose 2 kg/ha, visual observation on day 21
Summary of the method: as §1

Scirpus juncoides = assay: Test for Herbicidal Effect in Flooding Treatment (#1), SCIJU; details: flooding treatment at seeding, dose 2 kg/ha, visual observation on day 21
Summary of the method: as §1

Row | Structure (SMILES) | ECHDG (2-2.5L) #2 herbicidal effect (growth inhibition grade) [1] | ECHDG #1 herbicidal effect (growth inhibition grade) [2] | MONVA #1 herbicidal effect (growth inhibition grade) (Monochoria vaginalis) | SCIJU #1 herbicidal effect (growth inhibition grade) (Scirpus juncoides)
1 | O=S(=O)(Cc1c(OC(F)F)ccc(Cl)c1F)c1ncc(Cl)s1 [Compound 1C-45] | 5 (Growth inhibition effect is equal to or greater than 90%, or complete withering is achieved) | 5 (Growth inhibition effect is equal to or greater than 90%, or complete withering is achieved) | 5 (Growth inhibition effect is equal to or greater than 90%, or complete withering is achieved) | 5 (Growth inhibition effect is equal to or greater than 90%, or complete withering is achieved)
2 | O=S(=O)(Cc1c(Cl)cccc1OC(F)(F)F)c1ncc(Cl)s1 [Compound 1C-49] | 5 (Growth inhibition effect is equal to or greater than 90%, or complete withering is achieved) | 5 (Growth inhibition effect is equal to or greater than 90%, or complete withering is achieved) | 5 (Growth inhibition effect is equal to or greater than 90%, or complete withering is achieved) | 5 (Growth inhibition effect is equal to or greater than 90%, or complete withering is achieved)
3 | O=S(=O)(Cc1c(F)cccc1OCC(F)F)c1ncc(Cl)s1 [Compound 1C-50] | 5 (Growth inhibition effect is equal to or greater than 90%, or complete withering is achieved) | 5 (Growth inhibition effect is equal to or greater than 90%, or complete withering is achieved) | 5 (Growth inhibition effect is equal to or greater than 90%, or complete withering is achieved) | 5 (Growth inhibition effect is equal to or greater than 90%, or complete withering is achieved)
4 | O=S(=O)(Cc1c(Cl)cccc1OCC(F)F)c1ncc(Cl)s1 [Compound 1C-51] | 5 (Growth inhibition effect is equal to or greater than 90%, or complete withering is achieved) | 5 (Growth inhibition effect is equal to or greater than 90%, or complete withering is achieved) | 5 (Growth inhibition effect is equal to or greater than 90%, or complete withering is achieved) | 5 (Growth inhibition effect is equal to or greater than 90%, or complete withering is achieved)
5 | O=S(=O)(Cc1c(OCC(F)F)cccc1C(F)(F)F)c1ncc(Cl)s1 [Compound 1C-52] | 5 (Growth inhibition effect is equal to or greater than 90%, or complete withering is achieved) | 5 (Growth inhibition effect is equal to or greater than 90%, or complete withering is achieved) | 5 (Growth inhibition effect is equal to or greater than 90%, or complete withering is achieved) | 5 (Growth inhibition effect is equal to or greater than 90%, or complete withering is achieved)
6 | O=S(=O)(Cc1ccccc1OCC(F)(F)F)c1ncc(Cl)s1 [Compound 1C-53] | 5 (Growth inhibition effect is equal to or greater than 90%, or complete withering is achieved) | 5 (Growth inhibition effect is equal to or greater than 90%, or complete withering is achieved) | 5 (Growth inhibition effect is equal to or greater than 90%, or complete withering is achieved) | 5 (Growth inhibition effect is equal to or greater than 90%, or complete withering is achieved)
7 | O=S(=O)(Cc1c(F)cccc1OCC(F)(F)F)c1ncc(Cl)s1 [Compound 1C-54] | 5 (Growth inhibition effect is equal to or greater than 90%, or complete withering is achieved) | 5 (Growth inhibition effect is equal to or greater than 90%, or complete withering is achieved) | 5 (Growth inhibition effect is equal to or greater than 90%, or complete withering is achieved) | 5 (Growth inhibition effect is equal to or greater than 90%, or complete withering is achieved)
8 | O=S(=O)(Cc1c(Cl)cccc1OCC(F)(F)F)c1ncc(Cl)s1 [Compound 1C-55] | 5 (Growth inhibition effect is equal to or greater than 90%, or complete withering is achieved) | 5 (Growth inhibition effect is equal to or greater than 90%, or complete withering is achieved) | 5 (Growth inhibition effect is equal to or greater than 90%, or complete withering is achieved) | 5 (Growth inhibition effect is equal to or greater than 90%, or complete withering is achieved)
9 | O=S(=O)(Cc1c(F)cccc1OCCC(F)(F)F)c1ncc(Cl)s1 [Compound 1C-58] | 5 (Growth inhibition effect is equal to or greater than 90%, or complete withering is achieved) | 5 (Growth inhibition effect is equal to or greater than 90%, or complete withering is achieved) | 5 (Growth inhibition effect is equal to or greater than 90%, or complete withering is achieved) | 5 (Growth inhibition effect is equal to or greater than 90%, or complete withering is achieved)
10 | O=S(=O)(Cc1c(Cl)cccc1OCCC(F)(F)F)c1ncc(Cl)s1 [Compound 1C-59] | 4 (Growth inhibition effect is equal to or greater than 70%, and less than 90%) | 5 (Growth inhibition effect is equal to or greater than 90%, or complete withering is achieved) | 5 (Growth inhibition effect is equal to or greater than 90%, or complete withering is achieved) | 5 (Growth inhibition effect is equal to or greater than 90%, or complete withering is achieved)
11 | O=S(=O)(Cc1c(F)cccc1OCC(F)(F)C(F)F)c1ncc(Cl)s1 [Compound 1C-60, 5-chloro-2-{[2-(2,2,3,3-tetrafluoropropoxy)-6-fluorophenyl][methanesulfonyl]}-1,3-thiazole] | 5 (Growth inhibition effect is equal to or greater than 90%, or complete withering is achieved) | 5 (Growth inhibition effect is equal to or greater than 90%, or complete withering is achieved) | 5 (Growth inhibition effect is equal to or greater than 90%, or complete withering is achieved) | 5 (Growth inhibition effect is equal to or greater than 90%, or complete withering is achieved)
12 | O=S(=O)(Cc1c(F)cccc1OCC(F)(F)C(F)(F)F)c1ncc(Cl)s1 [Compound 1C-61] | 5 (Growth inhibition effect is equal to or greater than 90%, or complete withering is achieved) | 5 (Growth inhibition effect is equal to or greater than 90%, or complete withering is achieved) | 5 (Growth inhibition effect is equal to or greater than 90%, or complete withering is achieved) | 5 (Growth inhibition effect is equal to or greater than 90%, or complete withering is achieved)
13 | O=S(=O)(Cc1c(Cl)cccc1OCC(F)(F)C(F)(F)F)c1ncc(Cl)s1 [Compound 1C-62] | 4 (Growth inhibition effect is equal to or greater than 70%, and less than 90%) | 5 (Growth inhibition effect is equal to or greater than 90%, or complete withering is achieved) | 5 (Growth inhibition effect is equal to or greater than 90%, or complete withering is achieved) | 5 (Growth inhibition effect is equal to or greater than 90%, or complete withering is achieved)
14 | O=S(=O)(Cc1c(F)cccc1OCCCC(F)(F)F)c1ncc(Cl)s1 [Compound 1C-63] | 3 (Growth inhibition effect equal to or greater than 50%, and less than 70%) | 5 (Growth inhibition effect is equal to or greater than 90%, or complete withering is achieved) | 5 (Growth inhibition effect is equal to or greater than 90%, or complete withering is achieved) | 5 (Growth inhibition effect is equal to or greater than 90%, or complete withering is achieved)
15 | COc1ccc(Cl)c(CS(=O)(=O)c2ncc(Cl)s2)c1Cl [Compound 1C-73] | 5 (Growth inhibition effect is equal to or greater than 90%, or complete withering is achieved) | 5 (Growth inhibition effect is equal to or greater than 90%, or complete withering is achieved) | 5 (Growth inhibition effect is equal to or greater than 90%, or complete withering is achieved) | 5 (Growth inhibition effect is equal to or greater than 90%, or complete withering is achieved)
